This is an account of results in ChEMBL document CHEMBL4842380, “Enhanced Properties of a Benzimidazole Benzylpyrazole Lysine Demethylase Inhibitor: Mechanism-of-Action, Binding Site Analysis, and Activity in Cellular Models of Prostate Cancer” (J Med Chem, 2021).

Usually IC50 stands for the concentration at which inhibition is half-maximal. A lower IC50 goes with greater potency. In general, Km refers to the substrate concentration at which the rate is half of its maximum.

Active and inactive are the calls of the source. No cut-off for these calls is given here.

Data set [1] addresses T1, Lysine-specific demethylase 4E (Homo sapiens) (UniProt B2RXH2).
T1 sequence (whole entry): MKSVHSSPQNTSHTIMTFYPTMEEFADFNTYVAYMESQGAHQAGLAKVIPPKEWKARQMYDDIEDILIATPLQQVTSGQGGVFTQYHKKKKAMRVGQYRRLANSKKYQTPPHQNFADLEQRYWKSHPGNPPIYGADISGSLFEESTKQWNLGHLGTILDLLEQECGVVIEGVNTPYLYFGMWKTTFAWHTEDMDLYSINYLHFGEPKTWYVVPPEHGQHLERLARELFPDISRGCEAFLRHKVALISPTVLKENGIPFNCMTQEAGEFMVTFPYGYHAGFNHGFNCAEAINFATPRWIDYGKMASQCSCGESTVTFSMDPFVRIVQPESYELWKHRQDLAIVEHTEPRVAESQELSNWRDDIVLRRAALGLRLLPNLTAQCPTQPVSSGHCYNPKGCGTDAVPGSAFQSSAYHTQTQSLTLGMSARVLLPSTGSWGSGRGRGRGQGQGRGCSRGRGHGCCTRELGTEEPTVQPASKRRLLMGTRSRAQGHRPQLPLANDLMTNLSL
Put plainly: Inhibition of N-terminal His6-tagged KDM4E (1 to 337 residues) (unknown origin) expressed in Escherichia coli BL21 (DE3)-R3 at highest concentration preincubated for 10 mins followed by substrate addition by fluorescence based FDH-coupled assay.

In data set [2] the target is T2, Lysine-specific demethylase 4E (Homo sapiens, UniProt B2RXH2).
T2 sequence (B2RXH2 whole entry): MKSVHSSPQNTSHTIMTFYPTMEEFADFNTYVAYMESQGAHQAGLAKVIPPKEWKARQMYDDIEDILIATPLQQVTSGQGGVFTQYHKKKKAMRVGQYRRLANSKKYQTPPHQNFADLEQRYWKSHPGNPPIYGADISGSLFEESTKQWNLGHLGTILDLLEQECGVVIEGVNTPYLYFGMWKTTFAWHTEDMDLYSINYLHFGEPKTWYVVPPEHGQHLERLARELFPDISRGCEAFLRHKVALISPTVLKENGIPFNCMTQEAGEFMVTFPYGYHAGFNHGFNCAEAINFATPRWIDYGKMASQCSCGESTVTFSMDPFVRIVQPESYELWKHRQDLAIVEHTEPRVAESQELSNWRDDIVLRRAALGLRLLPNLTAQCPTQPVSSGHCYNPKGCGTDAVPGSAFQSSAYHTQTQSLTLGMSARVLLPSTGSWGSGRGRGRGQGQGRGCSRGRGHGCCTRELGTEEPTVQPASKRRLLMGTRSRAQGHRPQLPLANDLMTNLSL
Put plainly: Inhibition of N-terminal His6-tagged KDM4E (1 to 337 residues) (unknown origin) expressed in Escherichia coli BL21 (DE3)-R3 preincubated for 10 mins followed by substrate addition by fluorescence based FDH-coupled assay.

Compound in data set [3]: Cc1nn(-c2nc3ccccc3[nH]2)c(O)c1-c1ccccc1
Nature of the data set: Inhibition of N-terminal His6-tagged KDM4E (1 to 337 residues) (unknown origin) expressed in Escherichia coli BL21 (DE3)-R3 assessed as Km at 10 uM in presence of alpha-KG by Michaelis-Menten analysis (reference value: 12 uM). Particulars: Homo sapiens.

Compound in data set [4]: Cc1nn(-c2nc3ccccc3[nH]2)c(O)c1-c1ccccc1
Put plainly: Inhibition of N-terminal His6-tagged KDM4E (1 to 337 residues) (unknown origin) expressed in Escherichia coli BL21 (DE3)-R3 assessed as Km at 1 uM in presence of alpha-KG by Michaelis-Menten analysis (reference value: 12 uM). Particulars: Homo sapiens.

Compound in data set [5]: Cc1nn(-c2nc3ccccc3[nH]2)c(O)c1-c1ccccc1
Put plainly: Inhibition of N-terminal His6-tagged KDM4E (1 to 337 residues) (unknown origin) expressed in Escherichia coli BL21 (DE3)-R3 assessed as Km at 5 uM in presence of H3K9me3 by Michaelis-Menten analysis (reference value: 11 uM). The conditions noted are these: Homo sapiens.

Compound in data set [6]: O=C(O)c1ccnc(C(=O)O)c1
Put plainly: Inhibition of N-terminal His6-tagged KDM4E (1 to 337 residues) (unknown origin) expressed in Escherichia coli BL21 (DE3)-R3 assessed as Vmax at 1 uM in presence of alpha-KG by Michaelis-Menten analysis (reference value: 42 /s). Particulars: Homo sapiens.

Compound in data set [7]: Cc1nn(-c2nc3ccccc3[nH]2)c(O)c1-c1ccccc1
Nature of the data set: Inhibition of N-terminal His6-tagged KDM4E (1 to 337 residues) (unknown origin) expressed in Escherichia coli BL21 (DE3)-R3 assessed as Vmax at 10 uM in presence of H3K9me3 by Michaelis-Menten analysis (reference value: 21 /s). Particulars: Homo sapiens.

Compound in data set [8]: Cc1nn(-c2nc3ccccc3[nH]2)c(O)c1-c1ccccc1
Nature of the data set: Inhibition of N-terminal His6-tagged KDM4E (1 to 337 residues) (unknown origin) expressed in Escherichia coli BL21 (DE3)-R3 assessed as Vmax at 10 uM in presence of alpha-KG by Michaelis-Menten analysis (reference value: 35 /s). Particulars: Homo sapiens.

Compound in data set [9]: Cc1nn(-c2nc3ccccc3[nH]2)c(O)c1-c1ccccc1
Nature of the data set: Inhibition of N-terminal His6-tagged KDM4E (1 to 337 residues) (unknown origin) expressed in Escherichia coli BL21 (DE3)-R3 assessed as Km at 1 uM in presence of H3K9me3 by Michaelis-Menten analysis (reference value: 11 uM). Particulars: Homo sapiens.

Compound in data set [10]: Cc1nn(-c2nc3ccccc3[nH]2)c(O)c1-c1ccccc1
Nature of the data set: Inhibition of N-terminal His6-tagged KDM4E (1 to 337 residues) (unknown origin) expressed in Escherichia coli BL21 (DE3)-R3 assessed as Km at 10 uM in presence of H3K9me3 by Michaelis-Menten analysis (reference value: 11 uM). Particulars: Homo sapiens.

Compound in data set [11]: Cc1nn(-c2nc3ccccc3[nH]2)c(O)c1-c1ccccc1
Nature of the data set: Inhibition of N-terminal His6-tagged KDM4E (1 to 337 residues) (unknown origin) expressed in Escherichia coli BL21 (DE3)-R3 assessed as Vmax at 1 uM in presence of H3K9me3 by Michaelis-Menten analysis (reference value: 21 /s). The conditions noted are these: Homo sapiens.

Compound in data set [12]: Cc1nn(-c2nc3ccccc3[nH]2)c(O)c1-c1ccccc1
Nature of the data set: Inhibition of N-terminal His6-tagged KDM4E (1 to 337 residues) (unknown origin) expressed in Escherichia coli BL21 (DE3)-R3 assessed as Vmax at 1 uM in presence of alpha-KG by Michaelis-Menten analysis (reference value: 35 /s). The conditions noted are these: Homo sapiens.

Compound in data set [13]: Cc1nn(-c2nc3ccccc3[nH]2)c(O)c1-c1ccccc1
Put plainly: Inhibition of N-terminal His6-tagged KDM4E (1 to 337 residues) (unknown origin) expressed in Escherichia coli BL21 (DE3)-R3 assessed as Vmax at 5 uM in presence of H3K9me3 by Michaelis-Menten analysis (reference value: 21 /s). The conditions noted are these: Homo sapiens.

Compound in data set [14]: Cc1nn(-c2nc3ccccc3[nH]2)c(O)c1-c1ccccc1
Nature of the data set: Inhibition of N-terminal His6-tagged KDM4E (1 to 337 residues) (unknown origin) expressed in Escherichia coli BL21 (DE3)-R3 assessed as Vmax at 5 uM in presence of alpha-KG by Michaelis-Menten analysis (reference value: 35 /s). Particulars: Homo sapiens.

Compound in data set [15]: O=C(O)c1ccnc(C(=O)O)c1
Put plainly: Inhibition of N-terminal His6-tagged KDM4E (1 to 337 residues) (unknown origin) expressed in Escherichia coli BL21 (DE3)-R3 assessed as Km at 1 uM in presence of alpha-KG by Michaelis-Menten analysis (reference value: 22 uM). Particulars: Homo sapiens.

Compound in data set [16]: Cc1nn(-c2nc3ccccc3[nH]2)c(O)c1-c1ccccc1
Nature of the data set: Inhibition of N-terminal His6-tagged KDM4E (1 to 337 residues) (unknown origin) expressed in Escherichia coli BL21 (DE3)-R3 assessed as Km at 5 uM in presence of alpha-KG by Michaelis-Menten analysis (reference value: 12 uM). Particulars: Homo sapiens.

As to `Cc1cc(C)n(-c2nc3ccccc3[nH]2)n1`, the inhibition result in data set [1] was “inactive”.

In data set [2], `CCCc1c(C)nn(-c2nc3ccccc3[nH]2)c1O` yielded an IC50 of 24 µM. This lies in the double-digit micromolar range.

For the molecule `CCCCc1nn(-c2nc3ccccc3[nH]2)c(O)c1-c1ccccc1`, the IC50 in [2] is 6 µM.

As for `O=C(O)Cc1cc(O)n(-c2nc3ccccc3[nH]2)n1`, the midpoint of inhibition in data set [2], the IC50, lay at 347 µM.

`Cc1nn(-c2nc3ccc(C(=O)O)cc3[nH]2)c(O)c1-c1ccccc1` gave an IC50 in data set [2] of 19 µM.

Consider `CCc1nn(-c2nc3ccccc3[nH]2)c(O)c1-c1ccccc1`, for which inhibition in data set [2] was half-maximal at 5 µM (IC50). Compared with the last molecule, the IC50 is about 3.8-fold lower.

In data set [2], `C=CCc1c(C)nn(-c2nc3ccccc3[nH]2)c1O` gave an IC50 of 24 µM.

As for `Cc1c(CCC(=O)O)nn(-c2nc3ccccc3[nH]2)c1O`, in [2], the IC50 is 437 µM. This IC50 lies about 18-fold higher than the previous one.

In data set [2], `COC(=O)CCc1c(C)nn(-c2nc3ccccc3[nH]2)c1O` displayed a 50% inhibitory concentration (IC50) of 72 µM.

On to `Cc1cc(O)n(-c2nc3ccccc3[nH]2)n1`, for which the IC50 in data set [2] was found to be 76 µM.

`CNCCCc1c(C)nn(-c2nc3ccccc3[nH]2)c1O`: the IC50 in [2] was 9 µM.

`Cc1nn(-c2nc3ccccc3[nH]2)c(O)c1CCCN(C)C`: in data set [2], the IC50 was found to be 70 µM.

Regarding `Cc1nn(-c2ccc(Cl)nn2)c(O)c1-c1ccccc1`, inhibition in data set [2] was half-maximal at 68 µM (IC50).

`Cc1nn(-c2nc3ccccc3n2C)c(O)c1-c1ccccc1`: in [2], it took 34 µM to reach half-maximal inhibition (IC50).

B1: Lysine-specific demethylase 4E (Homo sapiens), B2RXH2 (protein)
chain: MKSVHSSPQNTSHTIMTFYPTMEEFADFNTYVAYMESQGAHQAGLAKVIPPKEWKARQMYDDIEDILIATPLQQVTSGQGGVFTQYHKKKKAMRVGQYRRLANSKKYQTPPHQNFADLEQRYWKSHPGNPPIYGADISGSLFEESTKQWNLGHLGTILDLLEQECGVVIEGVNTPYLYFGMWKTTFAWHTEDMDLYSINYLHFGEPKTWYVVPPEHGQHLERLARELFPDISRGCEAFLRHKVALISPTVLKENGIPFNCMTQEAGEFMVTFPYGYHAGFNHGFNCAEAINFATPRWIDYGKMASQCSCGESTVTFSMDPFVRIVQPESYELWKHRQDLAIVEHTEPRVAESQELSNWRDDIVLRRAALGLRLLPNLTAQCPTQPVSSGHCYNPKGCGTDAVPGSAFQSSAYHTQTQSLTLGMSARVLLPSTGSWGSGRGRGRGQGQGRGCSRGRGHGCCTRELGTEEPTVQPASKRRLLMGTRSRAQGHRPQLPLANDLMTNLSL
For B1, the Km in [3] was 2 µM; in data set [4] it was 13 µM; in data set [5], 14 µM; in [9], 14 µM; in [10] it was 19 µM; in data set [15], 69 µM. In data set [16], the Km was 8 µM. Further, the Vmax in data set [6] was found to be 37 s⁻¹; in data set [7], 5 s⁻¹; in data set [8], 12 s⁻¹; in [11], 21 s⁻¹; in data set [12] it was 31 s⁻¹; in [13], 14 s⁻¹. Besides, the Vmax in [14] came to 24 s⁻¹.
